Values of other authors in US20050031668A1, “Implantable polymeric device for sustained release of nalmefene” (priority 2003, published 2005).

Experiments:
[1] = not given; remark: listed apart in the source
[2] = in vivo
[3] = not given; remark: listed apart in the source
[4] = in vivo; remark: listed apart in the source

| Compound | nausea (20 or 80 mg/day orally) | serious adverse events (20 or 80 mg/day orally) | proportion of nalmefene patients who relapsed (20 or 80 mg/day orally, twelve weeks) | relapse to heavy drinking versus placebo (20 or 80 mg/day orally, twelve-week study, 105 alcoholic patients) | number of abstinent days and self-reported craving (treated versus control groups) | rate of relapse compared with placebo or 10 mg nalmefene ([1]; 40 mg oral, 21 alcohol-dependent patients) | number of drinks per drinking day ([1]; 40 and 10 mg doses) | efficacy in animal models of alcoholism [2] | half-life ([3]; compared with naltrexone) | serious adverse effects ([3]; in vivo) | agonist activity (μ, δ, and κ receptors) | opioid receptors acted on (μ, δ, and κ receptors) | limitations of use: hepatotoxicity [4] | limitations of use: nausea [4] |
| --- | --- | --- | --- | --- | --- | --- | --- | --- | --- | --- | --- | --- | --- | --- |
| C=C1CC[C@@]2(O)[C@H]3Cc4ccc(O)c5c4[C@@]2(CCN3CC2CC2)[C@H]1O5 [nalmefene] | Transient nausea | no serious adverse events occurred | One-third | Fewer patients receiving nalmefene relapsed to heavy drinking | the same in treated and control groups | significantly lower rate of relapse | significantly decreased | effective | longer half-life | no serious adverse effects | no agonist activity | acts on μ, δ, and κ receptors |  |  |
| O=C1CC[C@@]2(O)[C@H]3Cc4ccc(O)c5c4[C@@]2(CCN3CC2CC2)[C@H]1O5 [naltrexone] |  |  |  |  |  |  |  |  |  |  |  | primarily blocks μ receptors | dose-dependent hepatotoxic side effects | intolerable nausea |
